Experimental findings from US12215067B2, “Chemical compounds targeting the eye and use thereof in the treatment of eye diseases” (BIOPHYTIS, priority 2019, dated 2025) are described below.

The structures appear in SMILES notation.

A word on the Cmax: it is the highest concentration seen after dosing. In general, Tmax refers to the time from dosing to the highest level. As usually defined, the viability is a per cent measure of how many cells are alive, often set against a control.

Data set [1] in a line: Pharmacokinetic study via oral administration in mice, plasma concentrations. Format: in vivo, mice C57BL/6. The note with it: C57BL/6, mouse, in vivo, po, 50 mg/kg. The protocol: (§1) The pharmacokinetic study of the chemical compounds (C) following the oral administration thereof was conducted using mice C57BL/6 (January, 53940 The Genest Saint Isle, France). The chemical compounds derived from norbixin (C) were administered at a dose of 50 mg/kg of body weight. After administration, the blood was sampled at the tail at t=0.25 h; 0.5 h; 1 h; 3 h; 6 h and 8 h. The blood samples were centrifuged and the plasmas taken. The dosage of the plasma samples made it possible to determine pharmacokinetic parameters, namely Cmax, which corresponds to the maximum concentration observed after the administration of the molecule, Tmax which is the time required to reach maximum concentration after administration of the molecule and the AUC: the area under the curve which corresponds to the plasma exposure (FIG. 2).
(§2) The LC-MSMS analysis is carried out with a HPLC 1200 Infinity chain (Agilent Technologies, Santa-Clara, United States), a UV detector and a mass spectrometer QQQ6420 (Agilent Technologies Santa-Clara, United States). The injection volume is 5 μL. The chemical compounds C are eluted on an inverse phase column C18 (2.1*50 mm, particles 3 μm; Ace-C18-Excel, AIT) with a gradient of acetonitrile and water (containing 0.1% formic acid) and a flow rate of 0.3 mL/min. The conditions of the gradient can change according to the chemical compound C analyzed. The UV detector analyzes at 460 nm and the mass spectrometer analyzed in Mode MRM—Positive.
(§3) Table 2 discloses the pharmacokinetic results of the chemical compounds C following the administration p.o. 50 mg/kg in D-α-Tocopheryl polyethylene glycol 1000 succinate (VitE-TPGS) 20% in a sodium bicarbonate buffer (0.1M).

A short description of data set [2]: Pharmacokinetic study via oral administration in mice, ocular concentrations. It is filed as in vivo, mice C57BL/6. Particulars: for Tmax: C57BL/6, mouse, eye, po; for Eye Exposure 50 mg/kg p.o. AUC: Table 3, repeats the eye exposure of Table 2. The procedure: as §1
In parallel, the ocular concentrations of the chemical compounds derived from norbixin (C) were dosed in the following way (FIG. 1): both eyes of each mouse were taken in Precellys tubes and stored at −80° C. until the time of dosing. The eyes are then ground in the Precellys tubes with a bench homogenizer, Fast-prep (Fischer Scientific, Hampton, United States) in a mixture of organic solvents, in a first step with 500 μL of chloroform/methanol (1/1, v/v) then 500 μL of chloroform/dichloromethane (1/1, v/v). The supernatants are recovered at each step and transferred to a 96-well plate of 2 mL.
For the quantification of the chemical compounds C, a calibration curve is carried out with 8 standards (5 to 5,000 ng/mL) in the same organic solvent mixtures and transferred (100 μL) to the 96-well plate of 2 mL.
The supernatants and standards are evaporated in a EZ2 (Genevac, Ipswich, United Kingdom), without heating, then taken with 100 μL of DMSO/methanol (20:80, v/v) before being transferred to a 96-well plate of 200 μL.
as §2, §3

In data set [3] the test system is primary cultures of RPE of adult pigs. Put plainly: In vitro photoprotection of RPE cells illuminated with blue light in the presence of A2E. It is filed as cell-based, pig. Particulars: Sus scrofa, RPE, A2E 30 μM, survival 24 h after illumination; for viability at 5 µM: 5 μM compound; for viability at 10 µM: 10 μM compound; for viability at 20 µM: 20 μM compound. The source says: In addition to better distribution in the target-tissue, selecting new compounds must also be based on good photo-protective activity that limits the loss of the cells of the RPE and thus reducing the retinal degeneration observed during the AMD and other degenerative diseases such as Retinitis pigmentosa and Stargardt's disease. At the cellular level, on cultures of cells the RPE coming from pig retina, Fontaine et al. (2016) have shown that a treatment with norbixin (BIO201) protects the cells of the RPE against apoptosis following an illumination in the presence of A2E (80% survival 24 h after exposure). This same screening test according to the percentage of photoprotection was used so as to determine its modulation by and the chemical compounds derived from norbixin (C) object of the present invention in comparison with the photo-protective effect of norbixin and characterize these modulations from a statical standpoint.
The test in vitro described hereinabove and intended to study the photo-protective effect of norbixin was used so as to quantify the photo-protective effects of the various chemical compounds derived from norbixin (C) on the cells of the RPE illuminated with blue light in the presence of A2E (FIG. 3). The photo-protective effect of the molecules was evaluated in a phototoxicity cellular model induced by treatment by A2E followed by an illumination with blue light. The term “blue radiation” means the radiation corresponding to the blue band of the visible light spectrum, i.e. of a wavelength comprised between 435 and 490 nm. This model uses primary cultures of RPE of adult pigs. The cell survival is quantified thanks to a test of cellular viability. At −48 h the compounds to be tested (in solution at 5 mM in the DMSO) are added to obtain the final concentrations of 1 to 20 μM) then at −19 h of the A2E (final concentration 30 μM) and the cells (time 0 h) are illuminated. 24 h after the survival of the cells is measured. The acquisition of images, as well as the processing thereof, are carried out using a fluorescence microscope controlled by the Metamorph software and a dedicated quantification program. The experiments are conducted on a 96-well microplate in quadruplicate and the experiment is reproduced at least four times. The results are expressed in the form of a ratio representing the number of living cells in the wells treated by the molecules to be tested, divided by the number of living cells in the controlled wells (treated by the dilution medium without A2E). This test made it possible hereinabove to reveal the photo-protective activity of norbixin (Fontaine et al. 2016).

Where [4] appears, read: mice, p.o. 50 mg/kg in VitE-TPGS 20% in sodium bicarbonate buffer (0.1M).

Regarding `CC(=C/C=C/C(C)=C/C=C/C=C(C)/C=C/C=C(C)/C=C/C(=O)N1CCCC1)/C=C/C(=O)O` [C7, 1-pyrrolidinamido-(2E,4E,6E,8E,10E,12E,14E,16Z,18E)-4,8,13,17-tetramethylicosa-2,4,6,8,10,12,14,16,18-nonaenedioate], in data set [1], the Cmax turned out to be 6890 ng/mL, the “Plasma Exposure” value worked out at 17.29 µg·h/mL and the Tmax stood at 30 min. Also, in data set [2] (setting [4]), the Tmax is 30 min and the “Eye CMax” value was 7 ng/eye. In addition, the “Eye Exposure 50 mg/kg p.o. AUC” value in data set [2] stood at 18.5 ng · h/eye. Also, in data set [3], the viability at 5 µM stood at 5.2% and the viability at 10 µM was determined as 52.8%.
In the case of `CC(=C/C=C/C(C)=C/C=C/C=C(C)/C=C/C=C(C)/C=C/C(=O)NCCCN1CCOCC1)/C=C/C(=O)O` [C8], in data set [1], the peak level (Cmax) was 59800 ng/mL, the “Plasma Exposure” value was found to be 173.74 µg·h/mL and the Tmax turned out to be 30 min. In data set [2] (setting [4]), the Tmax came to 60 min and the “Eye CMax” value worked out at 56.8 ng/eye. The “Eye Exposure 50 mg/kg p.o. AUC” value in data set [2] stood at 472.4 ng · h/eye. Besides, in data set [3], the viability at 5 µM worked out at 28.6%, the viability at 10 µM is 33.4% and the viability at 20 µM was 75.2%.
With `CC(=C/C=C/C(C)=C/C=C/C=C(C)/C=C/C=C(C)/C=C/C(=O)NCCN1CCOCC1)/C=C/C(=O)O` [C10, 1-[2-morpholinoethanamido](2E,4E,6E,8E,10E,12E,14E,16Z,18E)-4,8,13,17-tetramethylicosa-2,4,6,8,10,12,14,16,18-nonaenedioate], in data set [1], the Cmax came out at 30400 ng/mL, the “Plasma Exposure” value is 108.1 µg·h/mL and the Tmax was found to be 60 min. For the same molecule, in data set [2] (setting [4]), the Tmax worked out at 60 min and the “Eye CMax” value worked out at 64.3 ng/eye. Also, the “Eye Exposure 50 mg/kg p.o. AUC” value in data set [2] came out at 533.2 ng · h/eye. Also, in data set [3], the viability at 5 µM was determined as 15.5%, the viability at 10 µM was found to be 27.4% and the viability at 20 µM turned out to be 80.3%.
For `CC(=C/C=C/C(C)=C/C=C/C=C(C)/C=C/C=C(C)/C=C/C(=O)N1CCC(O)CC1)/C=C/C(=O)O` [C12, 1-[4-hydroxypiperidinamido](2E,4E,6E,8E,10E,12E,14E,16Z,18E)-4,8,13,17-tetramethylicosa-2,4,6,8,10,12,14,16,18-nonaenedioate], in data set [1], the Cmax is 29300 ng/mL, the “Plasma Exposure” value came to 186.3 µg·h/mL and the Tmax came out at 30 min. In data set [2] (setting [4]), the Tmax was found to be 60 min and the “Eye CMax” value was 50.7 ng/eye. Besides, the “Eye Exposure 50 mg/kg p.o. AUC” value in data set [2] was found to be 538.4 ng · h/eye. In addition, in data set [3], the viability at 5 µM turned out to be 7.7%, the viability at 10 µM came out at 14.3% and the viability at 20 µM stood at 59.6%.
With `CC(=C/C=C/C(C)=C/C=C/C=C(C)/C=C/C=C(C)/C=C/C(=O)NCC(C)(C)N1CCOCC1)/C=C/C(=O)O` [C13, 1-[2-methyl-2-(4-morpholinyl)propylamido](2E,4E,6E,8E,10E,12E,14E,16Z,18E)-4,8,13,17-tetramethylicosa-2,4,6,8,10,12,14,16,18-nonaenedioate], in data set [1], the peak level (Cmax) was 27900 ng/mL, the “Plasma Exposure” value is 139.7 µg·h/mL and the Tmax came to 30 min. Further, in data set [2] (setting [4]), the Tmax is 60 min and the “Eye CMax” value amounted to 60.7 ng/eye. In data set [2], the “Eye Exposure 50 mg/kg p.o. AUC” value is given as 461.1 ng · h/eye. For the same molecule, in data set [3], the viability at 5 µM is 8%, the viability at 10 µM was found to be 0.5% and the viability at 20 µM was found to be 8%.
On to `CC(=C/C=C/C(C)=C/C=C/C=C(C)/C=C/C=C(C)/C=C/C(=O)N1CCC(CO)CC1)/C=C/C(=O)O` [C14, 1-[4-hydroxymethylpiperidinamido](2E,4E,6E,8E,10E,12E,14E,16Z,18E)-4,8,13,17-tetramethylicosa-2,4,6,8,10,12,14,16,18-nonaenedioate], for which, in data set [1], the Cmax was determined as 19000 ng/mL, the “Plasma Exposure” value stood at 162.2 µg·h/mL and the Tmax stood at 30 min. Moreover, in data set [2] (setting [4]), the Tmax came out at 60 min and the “Eye CMax” value is on record as 43.2 ng/eye. The “Eye Exposure 50 mg/kg p.o. AUC” value in data set [2] stood at 322.5 ng · h/eye. For the same molecule, in data set [3], the viability at 5 µM is 3.1%, the viability at 10 µM is 46.8% and the viability at 20 µM is 79.3%.
Take `CC(=C/C=C/C(C)=C/C=C/C=C(C)/C=C/C=C(C)/C=C/C(=O)N1C[C@@H](C)O[C@@H](C)C1)/C=C/C(=O)O` [C15]: in data set [1], the Cmax was found to be 17300 ng/mL, the “Plasma Exposure” value amounted to 46.99 µg·h/mL and the Tmax came to 30 min. In data set [2] (setting [4]), the Tmax amounted to 30 min and the “Eye CMax” value turned out to be 22.8 ng/eye. For the same molecule, the “Eye Exposure 50 mg/kg p.o. AUC” value in data set [2] was determined as 108.5 ng · h/eye. Also, the “Eye Exposure” value in data set [2] (mice, p.o. 50 mg/kg in VitE-TPGS 20% in sodium bicarbonate buffer (0.1M), area under the curve) stood at 108.5 ng · h/eye. In data set [3], the viability at 5 µM was 5.4%, the viability at 10 µM is 10% and the viability at 20 µM worked out at 58.5%.
Regarding `CC(=C/C=C/C(C)=C/C=C/C=C(C)/C=C/C=C(C)/C=C/C(=O)NCCc1ccc(O)cc1)/C=C/C(=O)O` [C16, 1-[4-hydroxyphenylethanamido](2E,4E,6E,8E,10E,12E,14E,16Z,18E)-4,8,13,17-tetramethylicosa-2,4,6,8,10,12,14,16,18-nonaenedioate], in data set [1], the Cmax is 10500 ng/mL, the “Plasma Exposure” value came out at 13.23 µg·h/mL and the Tmax came out at 60 min. In data set [2] (setting [4]), the Tmax is 30 min and the “Eye CMax” value is recorded as 7.4 ng/eye. Further, in data set [2], the “Eye Exposure 50 mg/kg p.o. AUC” value is given as 8.7 ng · h/eye. For the same molecule, in data set [3], the viability at 5 µM is 70.2%, the viability at 10 µM stood at 81.7% and the viability at 20 µM was determined as 26.8%.
Regarding `CC(=C/C=C/C(C)=C/C=C/C=C(C)/C=C/C=C(C)/C=C/C(=O)N1CCC(C(=O)O)CC1)/C=C/C(=O)O` [C18, 1-[4-carboxypiperidinamido](2E,4E,6E,8E,10E,12E,14E,16Z,18E)-4,8,13,17-tetramethylicosa-2,4,6,8,10,12,14,16,18-nonaenedioate], in data set [1], the Cmax is 61600 ng/mL, the “Plasma Exposure” value was determined as 948.84 µg·h/mL and the Tmax worked out at 30 min. Further, in data set [2] (setting [4]), the Tmax turned out to be 120 min and the “Eye CMax” value is 27.7 ng/eye. Further, the “Eye Exposure 50 mg/kg p.o. AUC” value in data set [2] came out at 307.8 ng · h/eye. In addition, in data set [3], the viability at 5 µM amounted to 27.3%, the viability at 10 µM worked out at 43.1% and the viability at 20 µM worked out at 63.8%.
